Test results: patent US20240207266A1, “METHODS FOR TREATING AND MONITORING PARKINSON'S DISEASE” (Denali Therapeutics Inc., priority 2021, published 2024)

Assays:
[1] = Phase 1 first-in-human study, safety and tolerability, multiple-dose cohorts (Parts B, D, E); assay type: in vivo; conditions: Part E, healthy subjects; procedural headache (250 mg BID), headache and malaise (40 mg BID)
[2] = CSF penetration, CSF/unbound plasma ratio (Phase 1/1b); assay type: in vivo, human
BMP(22:6/22:6) = assay: Urine BMP(22:6/22:6) (lysosomal engagement, Phase 1/1b); assay type: in vivo, human; conditions: HVs and patients with PD
Text: BMP concentrations were normalized to creatinine concentrations (ng/mg).
Lysosomal lipid BMP 22:6/22:6 (referred to throughout the document as “BMP”) measured in urine represents a mechanistic marker of correction of the lysosomal pathways downstream of LRRK2. BMP is a lysosomal phospholipid found exclusively on the intraluminal vesicles of late endosomes and lysosomes (Bissig and Gruenberg, Cold Spring Harb Perspect Biol. 2013; 5(10):a016816). Individuals with genetic or drug-induced lysosomal function disorders, including those with G2019S LRRK2 mutations, have increased levels of urine BMP (Lecommandeur et al., J Lipid Res. 2017:58(7): 1306-14; Alcalay et al., Mov Disord. 2013; 28(14):1966-71).

[3] = Clinical safety across the Phase 1 and Phase 1b studies (conclusions); assay type: in vivo, human
Text: Based on the 2-fold increase in kinase activity associated with LRRK2 G2019S point mutations, reduction of whole-blood pS935 LRRK2 of ≥50% at trough in ≥50% of the study subjects represents a minimal pharmacodynamic target.
Safety data from Phase 1 first in human study in healthy subjects and Phase 1b study in subjects with PD are summarized below.
The most common TEAE in compound I-treated participants was headache.

pT73 Rab10 = assay: pRab10 in PBMCs, MSD immunoassay (pathway engagement, Phase 1/1b); assay type: in vivo, human
Experimental: Blood was collected into CPT-sodium heparin tubes (BD BDAM362780) and PBMCs were then isolated following the manufacturer's protocol. The PBMCs were pelleted by centrifugation at maximum speed and then resuspended in PBMC lysis buffer (1× cell lysis buffer [CST catalog #9803] with PhosSTOP phosphatase inhibitor [Roche 04906837001], complete protease inhibitor [Roche 04693159001], and Benzonase [Sigma E8263]). The lysates were held on ice for 20 minutes, followed by centrifugation at maximum speed at 4° C. for 20 minutes. Supernatants were aliquoted and stored at −80° C. for later immunoassay analysis.
Capture antibodies were biotinylated using EZ-Link™ NHS-LC-LC-Biotin (Thermo Fisher, #21343), and detection antibodies were conjugated using Sulfo-TAG NHS-Ester (MSD, R31AA-1). 96-well (or 384-well) MSD GOLD Small Spot Streptavidin plates (MSD L45SSA-1) were coated with 25 μl (or 15 μl for 384 well plates) of capture antibody diluted in Diluent 100 (MSD, R50AA-2) for 1 hour at room temperature with 700 rpm shaking (1000 rpm for 384-well). After TBST wash (3×), 25 μl samples were added each well (10 μl for 384-well) and incubated at 4° C. overnight with agitation at 700 rpm. After TBST wash (3×), 25 μl of detection antibodies (15 μl for 384-well) were added each well diluted in TBST containing 25% MSD blocker A (MSD R93AA-1), together with rabbit (Rockland Antibodies D610-1000) and mouse gamma globin fraction (D609-0100). After 1 hour incubation at room temperature at 700 rpm, followed by TBST washes (3×), 150 μl MSD read buffer (MSD R92TC. 1:1 diluted with water) is added (35 μl for 384-well), and plates are read on the MSD Sector S 600.

## CCNc1nc(Nc2cc(C(C)(C)n3nccn3)nn2C2CC2)ncc1C(F)(F)F [compound I, N2-(3-(2-(2H-1,2,3-triazol-2-yl)propan-2-yl)-1-cyclopropyl-1H-pyrazol-5-yl)-N4-ethyl-5-(trifluoromethyl)pyrimidine-2,4-diamine]
[1]
  subjects with severe TEAEs: two subjects
[2]
  CSF penetration based on the CSF/unbound plasma ratio: high CSF penetration
BMP(22:6/22:6)
  lysosomal lipid BMP 22:6 in urine: dose-dependent reduction
[3]; HVs and patients with PD
  most common TEAE: headache
[3]; HVs and patients with PD, up to 28 days
  changes in pulmonary or renal function: no clinically meaningful changes
[3]; broad range of doses, HVs and patients with PD, up to 28 days
  tolerability: generally well tolerated
[3]; healthy subjects and subjects with PD, up to 28 days of exposure
  changes in potential LRRK2 on-target renal or pulmonary function: no apparent changes
[3]; over 200 subjects, doses up to 400 mg BID for 14 days in healthy volunteers or 225 mg for 28 days
  safety and tolerability: safe and generally well tolerated
pT73 Rab10; PBMC, about 70 to 800 mg/day, stated as an aspect of the method
  pRab10 reduced by at least: 44-97%
pT73 Rab10; Phase 1 HVs, trough (predose), steady state (Day 10 Cohort B, Day 28 Cohort D, Day 14 Cohort E), highest dose
  reduction of phosphorylation of Rab10 (pRab10) in PBMCs: ≥ 70%
pT73 Rab10; Phase 1b patients with PD, trough (predose), steady state, all doses
  pRab10 in PBMCs: reduced
